# Earlier results as cited in patent US20140030308A1, “IMPLANTS AND PROCEDURES FOR PROMOTING AUTOLOGOUS STEM CELL GROWTH” (priority 2012, published 2014).
# Conditions: general statement used to time administration before stent placement
smiles,measurement,value
"c1cc(CN2CCCNCCNCCCNCC2)ccc1CN1CCCNCCNCCCNCC1 [Prelixafor, 1,1′-[1,4-phenylenebis(methylene)]bis-1,4,8,11-tetraazacyclotetradecane]",half-life,about 8 hours
